Measured values: patent US10251937B2, “Retro-inverso analogs of spadin display increased antidepressant effects” (MEDINCELL, priority 2014, dated 2019)
Square brackets hold non-standard residues; d marks the D form. Peptide text beside a SMILES is read from it.

Experiments:
[1] = biological target: hERG (human Ether a go-go Related Gene) current IKr (Homo sapiens, UniProt Q12809); assay: Cardiac IKr (hERG) current, whole cell patch clamp in transfected HEK cells
Experimental: HEK-293 native cells were grown in serum in an atmosphere of 95% air/5% CO2 in Dulbecco's modified Eagle's medium supplemented with 10% (v/v) heat inactivated fetal bovine containing 1% (v/v) of penicillin/streptomycin and Glutamax×1. Cells were plated at a density of 20000 cells/35 mm dish and after 24 h cells were transfected using the JetPEI® method (Polyplus, France) with 25 ng/35 mm dish of p-IRES-HERG channel vector. Patch clamp experiments were carried out 48 h after transfection
All electrophysiological recordings were performed in whole cell configuration of the patch clamp technique. Each current was evaluated by using a RK 400 patch clamp amplifier (Axon Instrument, USA), low-pass filtered at 3 kHz and digitized at 10 kHz using a 12-bit analog-to-digital converter digidata (1322 series, Axon Instrument, USA). All current amplitudes are expressed in current densities. Results were expressed as mean±standard error of the mean (SEM). […] The bath solution contained 150 mM NaCl, 5 mM KCl, 3 mM MgCl2, 1 mM CaCl2 and 10 mM HEPES adjusted to pH 7.4 with NaOH. The pipette solution contained 155 mM KCl, 3 mM MgCl2, 5 mM EGTA and 10 mM HEPES adjusted to pH 7.2 with KOH. […] All experiments were performed at room temperature (21-22° c.). Stimulation protocols and data acquisition were carried out using a microcomputer (Dell Pentium) with a commercial software and hardware (pClamp 8.2). Currents were recorded by voltage clamp steps to membrane potentials of −100 to +60 mV in 20 mV steps applied from a holding potential of −80 mV. Duration of depolarization pulses were 0.825 ms, and the pulse cycling rate was 5 sec. […] Cells were continuously superfused with a microperfusion system. […] Tail currents were generated by repolarization to −40 mV. […] IKR currents were activated by voltage clamp steps of membrane potentials from −100 to +100 mV in 10 mV steps applied from a holding potential of +80 mV and tail currents were generated by a repolarization to +40 mV. […] The amplitudes of IKS and IKR currents were calculated at both the end of the first pulse and the peak of the tail pulse.

C57Bl/6J mice [2] = assay: Tail-immersion (tail flick) test, thermal pain; format: in vivo; settings: 10 μg/kg i.v., 30 min before test, n=10
Experimental: Mice were i.v. injected with 10 μg/kg of spadin in a bolus of 100 μL or 100 μL of a saline solution (0.9% NaCl) 30 min before the beginning of the test. The tail was immersed in a water bath at 48° C. until withdrawal was observed (cut-off time: 30 s). Two separate withdrawal latency time determinations were averaged.

C57Bl/6J mice [3] = assay: Forced Swimming Test (FST) in naive mice; format: in vivo; settings: for immobility time, FST, duration of action: 10 naive animals
Experimental: Naïve male C57Bl/6J mice from 7 to 9 weeks old were used in all experiments (Janvier laboratory). Mice were housed 10 animals per cage under a 12-h light/12-h dark cycle (light on at 8:00 am), in a ventilated room at a temperature of 22±1° C. Animals had free access to water and food (A03; SAFE, Augy, France). All experiments were conducted according to policies on the care and use of laboratory animals of the Society for Neuroscience, and also with respect to national laws on animal use. The local Ethics Committee (CIEPAL) approved the experiments.
Stock solutions were prepared of 2 mg/mL (10^-3M) in distilled water, and before injection spadin solution was diluted in NaCl 0.9% to obtain the different concentrations used for treatments. Corticosterone (Sigma-Aldrich, France) was dissolved in drinking water at the concentration of 3.5 mg/L in the presence of 4.5 g/L of beta-cyclodextrin. […] Fluoxetine (Sigma-Aldrich, France) was dissolved in drinking water at the dose of 80 mg/L and administered during 21 days. For i.p. administration, fluoxetine (TEVA Santé, France) was dissolved in NaCl 0.9% at a concentration of 0.75 mg/mL. The amount injected was 3 mg/kg. Spadin and analogues were administered by i.v. injection. For acute treatment, drugs were administered in a single 100 μL bolus 30 min prior to the beginning of the behavioral tests. For subchronic treatment drugs were injected during 4 consecutive days and behavioral tests were performed on day 5, without additional injection.
The animals were individually placed in a non-escapable cylinder (height 30 cm, diameter 15 cm) filled with 15 cm-water at 22±1° C. The trial was conducted for 6 min. The total period of immobility was manually measured during the last 4 min of the test. A mouse was considered immobile when it remained floating with only slight movements to keep its head above water.

human-IKS current = human-IKS current (Homo sapiens, UniProt P51787); assay: Cardiac IKs current, whole cell patch clamp in HEK-IKS cell line
Experimental: The human-TREK-1/HEK293 cell line (h-TREK-1/HEK) (Moha ou Maati, H. et al. (2011). PloS one, 6 (10), e25602) and HEK-IKS cell line (Ducroq, J. et al, (2010) Br J Pharmacol, 159(1):93-101) were grown in the presence of 0.5 mg/mL G418 in Dulbecco's modified Eagle's medium supplemented with 10% (v/v) heat inactivated fetal bovine serum containing 1% (v/v) penicillin/streptomycin in an atmosphere of 95% air/5% CO2.
All electrophysiological recordings were performed in whole cell configuration of the patch clamp technique. Each current was evaluated by using a RK 400 patch clamp amplifier (Axon Instrument, USA), low-pass filtered at 3 kHz and digitized at 10 kHz using a 12-bit analog-to-digital converter digidata (1322 series, Axon Instrument, USA). All current amplitudes are expressed in current densities. Results were expressed as mean±standard error of the mean (SEM). […] The bath solution contained 150 mM NaCl, 5 mM KCl, 3 mM MgCl2, 1 mM CaCl2 and 10 mM HEPES adjusted to pH 7.4 with NaOH. The pipette solution contained 155 mM KCl, 3 mM MgCl2, 5 mM EGTA and 10 mM HEPES adjusted to pH 7.2 with KOH. […] All experiments were performed at room temperature (21-22° c.). Stimulation protocols and data acquisition were carried out using a microcomputer (Dell Pentium) with a commercial software and hardware (pClamp 8.2). Currents were recorded by voltage clamp steps to membrane potentials of −100 to +60 mV in 20 mV steps applied from a holding potential of −80 mV. Duration of depolarization pulses were 0.825 ms, and the pulse cycling rate was 5 sec. […] Cells were continuously superfused with a microperfusion system. […] IKS currents were activated by voltage clamp steps of membrane potentials from −100 to +100 mV in 20 mV steps applied from a holding potential of −80 mV. Tail currents were generated by repolarization to −40 mV. Duration of both depolarization and repolarization pulses were 2.4 s, and the pulse cycling rate was 10 s. […] The amplitudes of IKS and IKR currents were calculated at both the end of the first pulse and the peak of the tail pulse.

[4] = 0 mV, in the presence of 10 μM, n=5

Chain of hERG (human Ether a go-go Related Gene) current IKr (Q12809 whole entry): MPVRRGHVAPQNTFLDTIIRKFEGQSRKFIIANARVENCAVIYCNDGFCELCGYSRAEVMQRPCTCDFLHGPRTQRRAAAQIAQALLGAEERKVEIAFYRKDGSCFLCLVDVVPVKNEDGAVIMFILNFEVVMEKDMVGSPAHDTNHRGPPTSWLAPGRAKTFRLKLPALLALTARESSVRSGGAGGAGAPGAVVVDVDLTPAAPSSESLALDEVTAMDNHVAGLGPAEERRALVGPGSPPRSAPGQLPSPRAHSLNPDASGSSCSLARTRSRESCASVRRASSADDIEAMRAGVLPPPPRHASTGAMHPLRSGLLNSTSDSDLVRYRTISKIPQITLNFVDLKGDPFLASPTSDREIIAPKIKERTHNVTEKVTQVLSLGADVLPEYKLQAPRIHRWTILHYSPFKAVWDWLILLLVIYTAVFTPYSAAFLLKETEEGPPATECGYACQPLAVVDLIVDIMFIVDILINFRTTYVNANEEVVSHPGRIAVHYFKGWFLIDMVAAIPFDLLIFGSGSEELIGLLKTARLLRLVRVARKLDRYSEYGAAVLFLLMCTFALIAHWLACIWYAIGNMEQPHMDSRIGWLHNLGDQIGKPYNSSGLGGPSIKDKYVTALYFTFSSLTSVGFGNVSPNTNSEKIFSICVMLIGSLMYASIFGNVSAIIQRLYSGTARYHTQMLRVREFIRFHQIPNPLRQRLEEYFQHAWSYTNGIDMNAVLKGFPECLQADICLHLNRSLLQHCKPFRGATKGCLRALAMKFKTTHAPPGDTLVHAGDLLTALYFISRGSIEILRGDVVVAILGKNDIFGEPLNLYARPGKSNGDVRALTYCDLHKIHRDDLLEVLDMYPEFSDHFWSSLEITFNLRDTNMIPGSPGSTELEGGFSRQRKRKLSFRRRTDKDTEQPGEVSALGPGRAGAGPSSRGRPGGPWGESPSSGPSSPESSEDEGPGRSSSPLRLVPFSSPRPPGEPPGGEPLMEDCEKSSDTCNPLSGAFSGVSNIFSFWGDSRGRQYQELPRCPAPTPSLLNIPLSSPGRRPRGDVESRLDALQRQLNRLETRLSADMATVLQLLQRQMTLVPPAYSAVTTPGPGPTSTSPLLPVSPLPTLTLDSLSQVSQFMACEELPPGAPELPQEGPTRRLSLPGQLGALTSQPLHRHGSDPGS

With `CC[C@@H](C)[C@@H](NC(=O)CNC(=O)[C@H](NC(=O)[C@@H](CO)NC(=O)[C@@H](Cc1c[nH]c2ccccc12)NC(=O)CNC(=O)[C@@H](CC(C)C)NC(=O)[C@@H](CCCNC(=N)N)NC(C)=O)C(C)C)C(=O)N1CCC[C@@H]1C(=O)NCC(=O)N[C@H](CO)C(=O)N[C@H](Cc1c[nH]c2ccccc12)C(=O)N[C@H](CCCNC(=N)N)C(=O)N1CCC[C@@H]1C(=O)N[C@H](CC(C)C)C(=O)N1CCC[C@@H]1C(=O)N[C@H](C)C(N)=O` [Analog 3, Ac-rlGwsvGipGswrplpa-NH2] (Ac-[dR][dL]G[dW][dS][dV]G[dI][dP]G[dS][dW][dR][dP][dL][dP][dA]-NH2) the “IKr current density at end of first pulse” value [1, 4] was 224.48±35.94 pA/pF, the “IKr tail current density” value [1, 4] was 212.99±38.38 pA/pF and the “effect on currents generated by IKr channels expressed in HEK cells” value ([1]; 10 μM) was “did not modify currents”. For the same compound, the tail withdrawal time (C57Bl/6J mice [2]) was 11.32 ± 1.04 s, the “immobility time, FST, acute treatment” value (C57Bl/6J mice [3]; 10 μg/kg acute i.v., measured 30 minutes after injection, n=10) was 135.10 ± 8.11 s and the “immobility time, FST, subchronic treatment” value (C57Bl/6J mice [3]; 10 μg/kg i.v. once a day for 4 days, test on day 5) was 114.9 ± 9.82 s. The “immobility time, FST, duration of action” value (C57Bl/6J mice [3]; 1 hour after i.v. injection) was 123.4 ± 7.0 s, the “immobility time, FST, duration of action” value (C57Bl/6J mice [3]; 16 hours after i.v. injection) was 129.6 ± 12.7 s and the “duration of activity in vivo compared to Analog 8” value (C57Bl/6J mice [3]; FST (FIG. 4B)) was “active for longer duration in vivo”. For the same compound, the “IKS tail current density” value (human-IKS current; [4]) was 8.33±2.06 pA/pF, the “IKs current density at the end of pulses” value (human-IKS current; [4]) was 17.58±4.03 pA/pF and the “effect on currents generated by IKS channels expressed in HEK cells” value (human-IKS current; 10 μM) was “did not modify currents”.
